According to US12389907B2, “Compounds with nematicidal activity to pinewood nematode Bursaphelenchus xylophilus” (KOREA ADVANCED INSTITUTE OF SCIENCE AND TECHNOLOGY, priority 2023, dated 2025):

Tested on: pinewood nematode (Bursaphelenchus xylophilus)
Test: Nematode screening: mortality of pinewood nematode in 96-well plate, propidium iodide staining
Format: cell-based
Details: compound dissolved in polar solvent DMSO, nematode treated with the solution
Description: Nematode Screening Method and Test Results
(1) A pinewood nematode sample was prepared so that 130 to 150 nematodes were present per 40 μL.
(2) The pinewood nematode sample was dispensed into a 96-well plate by 40 μL. Triplicates were prepared for each sample.
(3) Each compound was dispensed into each well containing the pinewood nematode sample. The tested compounds were (±)-orthosporin and 6,8-dihydroxy-3-methylisocoumarin, and each compound was dissolved in 1% DMSO solvent at a concentration of 20 μM. The chemical formulas of the compounds are illustrated in FIG. 1.
(4) After 120 hours, 20 μL of 50 μM propidium iodide was dispensed into each well containing the sample, and then shaking incubation was performed at RT for 15 minutes.
(5) The mortality rate was evaluated by counting only dead pinewood nematodes stained red in the total number of nematodes using a fluorescence microscope.

SMILES | effect of killing the nematode
CC(O)Cc1cc2cc(O)cc(O)c2c(=O)o1 (racemic) [Chemical Formula 3, 6,8-dihydroxy-3-(2-hydroxypropyl)-1H-isochromen-1-one] | have the effect of killing the nematode
Cc1cc2cc(O)cc(O)c2c(=O)o1 [Chemical Formula 2, 6,8-dihydroxy-3-methyl-1H-isochromen-1-one] | have the effect of killing the nematode
